Data published in patent publication US20200305471A1, “METHODS AND COMPOSITIONS FOR IMPROVING THE TASTE OF DIET COLA SODAS AND OTHER BEVERAGES” (priority 2017, published 2020).

Key:
[1] = Taste and/or aroma of Diet Coke after adding the substance (opinions of a few people); details: for taste and/or aroma of Diet Coke after adding the substance: substance alone added to about 220 ml (7.5 ounces) Diet Coke, room temperature
Description: For the embodiments disclosed herein, the signifier “aroma” is used in preference to its synonyms: smell and odor (which have negative connotations), and scent (which has perfume connotations). The signifier “taste” is mostly used herein, and to a lesser extent, “flavor”, which often signifies a specific “taste”.
Taste and aroma are not separate sensory experiences. […] This is attributed to the odor sensors in the nose being blocked. […] Thus, in many of the embodiments disclosed herein, the term “taste and/or aroma” is used.
For the exemplary embodiments that follow, the examples are performed with all liquids at room temperature. Sodas typically taste more flavorful at lower temperatures (sodas retain carbonation better at lower temperatures, which creates a better taste for many people). […] Tastes and/or aromas can also vary due to the use of soda container: glass, plastic or metal. There are many who think that cola sodas taste best when consumed from glass bottles. For many of the exemplary embodiments disclosed herein, Bodum Pavina Coffee Mugs, double-wall insulated glass mugs, 8 ounce size, are used.
One embodiment of an improved diet cola beverage product is understood with the following exemplary method and resulting exemplary article of manufacture. […] Any coca leaf extract with similar chemical components to ERC-A20 can be used—coca leaf extracts discussed below.

[2] = chemicals of externally-applied lavender or tea tree oils; NIH 2018; cited from earlier work
[3] = as sweet as sucrose; cited from earlier work
[4] = cited from earlier work

| Compound | taste and/or aroma of Diet Coke after adding the substance [1] | contribution to abnormal breast growth (potential hormone disruptor) [2] | also measured |
| --- | --- | --- | --- |
| CC1=CCC(C(C)C)=CC1 [gamma-terpinene] | while more pleasant as seen with adding alpha-terpineol, also has less of a “coca cola” taste | – | – |
| C=C(C)[C@H]1CC=C(C)CC1 [limonene] | – | probably contributed to the abnormal breast growth | – |
| COC(=O)c1ccccc1 [methyl benzoate] | improvement in Diet Coke taste similar to that of ethyl benzoate | – | – |
| O=S(=O)([O-])NC1CCCCC1.[Na+] [sodium cyclamate] | – | – | taste test preference, added to Diet Coke versus added to Coca-Cola Zero ([1]; some taste tests, Diet Coke (total 2 artificial sweeteners) vs Coca-Cola Zero (3 artificial sweeteners)): more preferred |
| OC[C@@H](O)[C@@H](O)[C@H](O)[C@@H](O)CO [sorbitol] | – | – | sweetness relative to sucrose [3]: about 60% |
| CC1=CCC(O)(C(C)C)CC1 (centres unmarked) [4-terpineol] | – | probably contributed to the abnormal breast growth | – |
| C=CC(C)(CCC=C(C)C)OC(C)=O (centres unmarked) [linalyl acetate] | – | probably contributed to the abnormal breast growth | – |
| CC1=CCC(C(C)(C)O)CC1 (stereo not drawn) [alpha-terpineol] | more pleasant | probably contributed to the abnormal breast growth | – |
| C=CC(C)(O)CCC=C(C)C (centres unmarked) [linalool] | little-to-no change in the unpleasant | probably contributed to the abnormal breast growth | – |
| O=C([O-])c1ccccc1.[Na+] [sodium benzoate, reference compound] | No improvement | – | – |
| OC[C@H]1O[C@@](CO)(O[C@H]2O[C@H](CO)[C@@H](O)[C@H](O)[C@H]2O)[C@@H](O)[C@@H]1O [sugar] | – | – | taste of resulting beverage, sweetener added together with coca leaf extract ([1]; 220 ml Diet Coke + one teaspoon coca leaf extract + sweetener (about one bag Sugar Twin; one to two bags sugar)): more pleasant tasting Diet Coke soda |
| CCOC(=O)c1ccccc1 [ethyl benzoate] | more pleasant than that of untreated Diet Coke | – | solubility in water [4]: 500 micrograms/milliliter |
| CC12CCC(CC1)C(C)(C)O2 [eucalyptol] | – | probably contributed to the abnormal breast growth | – |
| CC1=CC=C(C(C)C)CC1 [alpha-terpinene] | – | probably contributed to the abnormal breast growth | – |
